Reference: the SangsterLogP compilation

logP | SMILES
1.8 | CCN(CC)C(=O)c1ccccc1
1.38 | CCNC(=O)c1ccc(C)cc1
3 | CCOc1ccccc1C(=O)N(C(C)C)C(C)C
2.6 | Cc1cccc(C(=O)N2CCCCC2)c1
2.28 | CCNC(=O)CC1CCCCC1
0.95 | CCNC(=O)c1ccccc1Cl
2.5 | Cc1ccc(C(=O)N(C(C)C)C(C)C)cc1
2.4 | CCNC(=O)c1ccccc1OCC
1.54 | CN(C)C(=O)c1ccccc1Cl
2.34 | CCN(CC)C(=O)c1cccc(C)c1
2.5 | CCN(CC)C(=O)c1ccc(OC)cc1
3 | Cc1cccc(C(=O)N(C(C)C)C(C)C)c1
2.44 | O=C(Cc1ccccc1)N1CCCCC1
2.4 | CCN(CC)C(=O)Cc1ccccc1
1.32 | CCNC(=O)c1cccc(C)c1
2.2 | O=C(c1ccccc1)N1CCCCC1
1.72 | Cc1ccc(C(=O)N(C)C)cc1
1.2 | CN(C)C(=O)c1ccccc1

logP | SMILES
2.19 | CN(C)C(=O)CC1CCCCC1
2.8 | COc1ccc(C(=O)N(C(C)C)C(C)C)cc1
1.6 | Cc1cccc(C(=O)N(C)C)c1
2.4 | COc1ccc(C(=O)N2CCCCC2)cc1
2.38 | CCN(CC)C(=O)c1ccc(C)cc1
2.8 | O=C(c1ccccc1Cl)N1CCCCC1
2.5 | CC(C)N(C(=O)c1ccccc1)C(C)C
2.1 | CCN(CC)C(=O)c1ccccc1Cl
3 | CC(C)N(C(=O)c1ccccc1Cl)C(C)C
1.48 | CN(C)C(=O)Cc1ccccc1
3.1 | CC(C)N(C(=O)Cc1ccccc1)C(C)C
2.5 | CCOc1ccccc1C(=O)N(CC)CC
1.14 | CCNC(=O)c1ccc(OC)cc1
3.2 | O=C(CC1CCCCC1)N1CCCCC1
3.12 | CCN(CC)C(=O)CC1CCCCC1
1 | CCNC(=O)Cc1ccccc1
2.8 | Cc1ccc(C(=O)N2CCCCC2)cc1
2.6 | CCOc1ccccc1C(=O)N1CCCCC1
